Drawing on patent US10370343B2, “[6,6] Fused bicyclic HDAC8 inhibitors” (FORMA Therapeutics, Inc., priority 2015, dated 2019), this text covers IC50 for 25 molecules.

Structures can show the parent of a compound that is named as a salt.

Test [1] deals with T1, Full length human recombinant HDAC8 protein (Homo sapiens, UniProt Q9BY41).
T1 construct: Full length human recombinant HDAC8 protein was expressed in baculoviral system; made in house
T1 sequence (Q9BY41 1-377): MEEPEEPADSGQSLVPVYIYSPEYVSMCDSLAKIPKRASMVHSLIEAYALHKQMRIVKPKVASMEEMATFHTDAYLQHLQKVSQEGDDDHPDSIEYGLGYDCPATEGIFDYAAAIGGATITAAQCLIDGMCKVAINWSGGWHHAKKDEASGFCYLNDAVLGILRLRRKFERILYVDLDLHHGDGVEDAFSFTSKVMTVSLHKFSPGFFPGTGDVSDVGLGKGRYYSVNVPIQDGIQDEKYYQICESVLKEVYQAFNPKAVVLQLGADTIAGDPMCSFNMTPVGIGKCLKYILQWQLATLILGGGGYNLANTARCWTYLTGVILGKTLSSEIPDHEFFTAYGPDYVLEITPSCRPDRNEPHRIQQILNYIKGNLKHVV
Description: In vitro histone deacetylase assay: enzymatic HDAC8 electrophoretic mobility shift assay. Type of test: biochemical. As to conditions: electrophoretic mobility shift assay; enzyme 1 nM; 2 μM fluorescently labeled peptide substrate RHKK(Ac)-NH2; 25° C.; 12 concentrations; read-out: HDAC8 IC50. Here is the method: The enzymatic HDAC8 assay was performed using electrophoretic mobility shift assay. Full length human recombinant HDAC8 protein was expressed in baculoviral system and purified by affinity chromatography. The enzymatic reactions were assembled in 384 well plates in a total volume of 25 μL in a reaction buffer composing: 100 mM HEPES, pH7.5, 25 mM KCl, 0.1% bovine serum albumin, 0.01% Triton X-100, 1% DMSO (from compounds) 2 μM of the fluorescently labeled peptide substrate and enzyme. The enzyme was added at a final concentration of 1 nM. The peptide substrate RHKK(Ac)—NH2 was used. The compounds were tested at 12 concentrations spaced by 3× dilution intervals. Negative control samples (0%-inhibition in the absence of inhibitor) and positive control samples (100%-inhibition) were assembled in replicates of four in each assay plate. The reactions were incubated at 25° C. and quenched by the addition of 45 μL of termination buffer (100 mM HEPES, pH 7.5, 0.01% Triton X-100, 0.05% SDS).
The terminated assay plates were analyzed on LabChip® 3000 microfluidic electrophoresis instrument (Perkin Elmer/Caliper Life Sciences). The fluorescence intensity of the electrophoretically separated de-acetylated product and substrate peptide was measured. Activity in each sample was determined as the product to sum ratio (PSR): P/(S+P), where P is the peak height of the product peptide and S is the peak height of the substrate peptide. Percent inhibition (Pinh) is determined using the following equation: Pinh=(PSR0%−PSRinh)/(PSR0%−PSR100%)*100, where PSRinh is the product sum ratio in the presence of inhibitor, PSR0% is the average product sum ration in the absence of inhibitor and PSR100% is the average product sum ratio in 100%-inhibition control samples. The IC50 values of inhibitors were determined by fitting the %-inhibition curves with 4 parameter dose-response model using XLfit 4 software.

For test [2], the target named is T2, Recombinant N-terminal GST tag full-length human HDAC8 (Homo sapiens, UniProt Q9BY41).
T2 construct: Recombinant N-terminal GST tag full-length human HDAC8; purchased SignalChem H90-30G-1000; host or cells: baculovirus in Sf9 insect cells
T2 sequence (Q9BY41 1-377): T1 sequence (Q9BY41 1-377)
Description: HDAC8 probe binding assay, time resolved fluorescence (TRF) format. As to conditions: compounds grouped by IC50 range (Table 2). In a few lines:
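IC50 values come from four-parameter logistic fits of percent inhibition, scaled between DMSO (high) and no-enzyme (low) controls. Time-resolved fluorescence (ex 340, em 485/535 nm) was read after 16 h at room temperature. Enzyme was Sf9-expressed full-length human HDAC8 with an N-terminal GST tag, in a probe-binding format.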

Usually IC50 stands for the midpoint of a concentration-inhibition curve.

For the molecule `COc1ccc(CN2C(=O)[C@@H](C)Oc3ccc(C(=O)NO)cc32)cc1` (single isomer, unassigned) [Compound I-162], the IC50 in test [1] is 0.025 to 0.1 µM.
Regarding `CN1CC(C(=O)NC2CCOCC2)Oc2ccc(C(=O)NO)cc21` (stereo not shown) [Compound I-1, N^6-hydroxy-4-methyl-N^2-(tetrahydro-2H-pyran-4-yl)-3,4-dihydro-2H-benzo[b][1,4]oxazine-2,6-dicarboxamide hydrochloride], the half-maximal inhibitory concentration (IC50) in test [1] was > 1 µM.
Still for that read-out and setting: next, `O=C(NO)c1ccc2c(c1)N(Cc1ccccc1)CC(C(=O)NC1CCOCC1)O2` (stereo not shown) [Compound I-2, 4-benzyl-N^6-hydroxy-N^2-(tetrahydro-2H-pyran-4-yl)-3,4-dihydro-2H-benzo[b][1,4]oxazine-2,6-dicarboxamide]: 0.025 to 0.1 µM; `CN1CC(C(=O)N2CC3(CC3)c3ccccc32)Oc2ccc(C(=O)NO)cc21` (stereo not shown) [Compound I-3, N-hydroxy-4-methyl-2-(spiro[cyclopropane-l,3′-indoline]-1′-carbonyl)-3,4-dihydro-2H-benzo[b][1,4]oxazine-6-carboxamide hydrochloride]: 0.1 to 1 µM; `O=C(NO)c1ccc2c(c1)N(Cc1ccccc1)CC(C(=O)N1CC3(CC3)c3ccccc31)O2` (stereo not shown) [Compound I-4, 4-benzyl-N-hydroxy-2-(spiro[cyclopropane-l,3′-indoline]-1′ carbonyl)-3,4-dihydro-2H-benzo[b][1,4]oxazine-6-carboxamide hydrochloride]: 0.025 to 0.1 µM.
As to `CN1CC(C(=O)NCc2ccccc2)Oc2ccc(C(=O)NO)cc21` (stereo not shown) [Compound I-5, N^2-benzyl-N^6-hydroxy-4-methyl-3,4-dihydro-2H-benzo[b][1,4]oxazine-2,6-dicarboxamide hydrochloride], the half-inhibitory concentration (IC50) in test [1] was in the range of 0.025 to 0.1 µM.
Regarding `O=C(NO)c1ccc2c(c1)N(Cc1ccccc1)CC(C(=O)NCc1ccccc1)O2` (stereo not shown) [Compound I-6, N^2,4-dibenzyl-N^6-hydroxy-3,4-dihydro-2H-benzo[b][1,4]oxazine-2,6-dicarboxamide], the IC50 in test [1] was 0.025 to 0.1 µM.
With `CN1CC(C(=O)NC2CCOCC2)Oc2cc(C(=O)NO)ccc21` (stereo not shown) [Compound I-7, N^7-hydroxy-4-methyl-N^2-(tetrahydro-2H-pyran-4-yl)-3,4-dihydro-2H-benzo[b][1,4]oxazine-2,7-dicarboxamide], in test [1], the IC50 lay within 0.1 to 1 µM.
Same read-out and setting: next, `O=C(NO)c1ccc2c(c1)OC(C(=O)NC1CCOCC1)CN2Cc1ccccc1` (stereo not shown) [Compound I-8, 4-benzyl-N^7-hydroxy-N^2-(tetrahydro-2H-pyran-4-yl)-3,4-dihydro-2H-benzo[b][1,4]oxazine-2,7-dicarboxamide]: 0.1 to 1 µM; `CN1CC(C(=O)N2CC3(CC3)c3ccccc32)Oc2cc(C(=O)NO)ccc21` (stereo not shown) [Compound I-9, N-hydroxy-4-methyl-2-(spiro[cyclopropane-1,3′-indoline]-1′-carbonyl)-3,4-dihydro-2H-benzo[b][1,4]oxazine-7-carboxamide]: < 0.025 µM.
As for `O=C(NO)c1ccc2c(c1)N(Cc1cccc(C(F)(F)F)c1Cl)C(=O)CO2` [Compound I-354, 4-(2-chloro-3-(trifluoromethyl)benzyl)-N-hydroxy-3-oxo-3,4-dihydro-2H-benzo[b][1,4]oxazine-6-carboxamide], in test [2], the IC50 was 0.025 to 0.1 µM.
`O=C(NO)c1ccc2c(c1)N(Cc1cc(Cl)cc(Cl)c1)C(=O)CO2` [Compound I-355, 4-(3,5-dichlorobenzyl)-N-hydroxy-3-oxo-3,4-dihydro-2H-benzo[b][1,4]oxazine-6-carboxamide]: the IC50 in test [2] was ≤ 0.025 µM.
As to `O=C(NO)c1ccc2c(c1)N(Cc1ccc(C(F)(F)F)cc1Cl)C(=O)CO2` [Compound I-356, 4-(2-chloro-4-(trifluoromethyl)benzyl)-N-hydroxy-3-oxo-3,4-dihydro-2H-benzo[b][1,4]oxazine-6-carboxamide], the IC50 in test [2] is ≤ 0.025 µM.
As for `O=C(NO)c1ccc2c(c1)N(Cc1nc3cccnc3s1)C(=O)CO2` [Compound I-359, N-hydroxy-3-oxo-4-(thiazolo[5,4-b]pyridin-2-ylmethyl)-3,4-dihydro-2H-benzo[b][1,4]oxazine-6-carboxamide], the IC50 in test [2] was ≤ 0.025 µM.
As for `CN(C)C(=O)c1ccc(CN2C(=O)COc3ccc(C(=O)NO)cc32)cc1` [Compound I-360, 4-(4-(dimethylcarbamoyl)benzyl)-N-hydroxy-3-oxo-3,4-dihydro-2H-benzo[b][1,4]oxazine-6-carboxamide], in test [2], the IC50 was in the range of 0.025 to 0.1 µM.
Regarding `CN(C)c1ccc(CN2C(=O)COc3ccc(C(=O)NO)cc32)cc1` [Compound I-361, 4-(4-(dimethylamino)benzyl)-N-hydroxy-3-oxo-3,4-dihydro-2H-benzo[b][1,4]oxazine-6-carboxamide], in test [2], the half-inhibitory concentration (IC50) is ≤ 0.025 µM.
Take `NC(=O)c1ccc(CN2C(=O)COc3ccc(C(=O)NO)cc32)cc1` [Compound I-362, 4-(4-carbamoylbenzyl)-N-hydroxy-3-oxo-3,4-dihydro-2H-benzo[b][1,4]oxazine-6-carboxamide]: the IC50 in test [2] is ≤ 0.025 µM.
For `O=C(NO)c1ccc2c(c1)N(Cc1cn3ccsc3n1)C(=O)CO2` [Compound I-363, N-hydroxy-4-(imidazo[2,1-b]thiazol-6-ylmethyl)-3-oxo-3,4-dihydro-2H-benzo[b][1,4]oxazine-6-carboxamide], the IC50 in test [2] was 0.025 to 0.1 µM.
For `Cc1ccn2cc(CN3C(=O)COc4ccc(C(=O)NO)cc43)nc2c1` [Compound I-364, N-hydroxy-4-((7-methylimidazo[1,2-a]pyridin-2-yl)methyl)-3-oxo-3,4-dihydro-2H-benzo[b][1,4]oxazine-6-carboxamide], the concentration for half-maximal inhibition (IC50) in test [2] is 0.025 to 0.1 µM.
With `Cc1ccc2nc(CN3C(=O)COc4ccc(C(=O)NO)cc43)cn2c1` [Compound I-365, N-hydroxy-4-((6-methylimidazo[1,2-a]pyridin-2-yl)methyl)-3-oxo-3,4-dihydro-2H-benzo[b][1,4]oxazine-6-carboxamide], the IC50 in test [2] lay in the range of 0.025 to 0.1 µM.
On the same count and under the same terms, next, `O=C(NO)c1ccc2c(c1)N(Cc1cn3cc(F)ccc3n1)C(=O)CO2` [Compound I-368, 4-((6-fluoroimidazo[1,2-a]pyridin-2-yl)methyl)-N-hydroxy-3-oxo-3,4-dihydro-2H-benzo[b][1,4]oxazine-6-carboxamide]: 0.025 to 0.1 µM; `CC(C)NC(=O)c1ccc(CN2C(=O)COc3ccc(C(=O)NO)cc32)cc1` [Compound I-369, N-hydroxy-4-(4-(isopropylcarbamoyl)benzyl)-3-oxo-3,4-dihydro-2H-benzo[b][1,4]oxazine-6-carboxamide]: 0.025 to 0.1 µM.
Turning to `COc1ccc(F)c(CN2C(=O)COc3ccc(C(=O)NO)cc32)c1` [Compound I-371, 4-(2-fluoro-5-methoxybenzyl)-N-hydroxy-3-oxo-3,4-dihydro-2H-benzo[b][1,4]oxazine-6-carboxamide], the IC50 in test [2] was ≤ 0.025 µM.
Turning to `N#Cc1ccc(CN2C(=O)COc3ccc(C(=O)NO)cc32)c(Cl)c1` [Compound I-372, 4-(2-chloro-4-cyanobenzyl)-N-hydroxy-3-oxo-3,4-dihydro-2H-benzo[b][1,4]oxazine-6-carboxamide], the IC50 in test [2] is ≤ 0.025 µM.
As for `N#Cc1ccc(Cl)c(CN2C(=O)COc3ccc(C(=O)NO)cc32)c1` [Compound I-373, 4-(2-chloro-5-cyanobenzyl)-N-hydroxy-3-oxo-3,4-dihydro-2H-benzo[b][1,4]oxazine-6-carboxamide], the IC50 in test [2] was ≤ 0.025 µM.
